According to ChEMBL document CHEMBL4052684, “A novel intestinal-restricted FXR agonist” (Bioorg Med Chem Lett, 2017):
Activity calls are given as the source filed them. The rule behind the calls is not given here.

Assays:
Mus musculus [1] = assay: Induction of FXR activation in C57BL/6 mouse ileum assessed as reduction in FXR-mediated Cyp7A1 mRNA expression at 100 mg/kg, ig for 5 days by PCR method; format: functional, organism-based
[2] = Apparent permeability from apical side to basolateral side in human Caco2 cells at 20 uM by LC-MS/MS method; format: ADME, cell-based; settings: Caco-2
[3] = Apparent permeability from basolateral to apical side in human Caco2 cells at 20 uM by LC-MS/MS method; format: ADME, cell-based; settings: Caco-2
Jejunum = assay: Drug accumulation in C57BL/6 mouse jejunum at 100 mg/kg, ig for 5 days by LC-MS/MS method; format: ADME, organism-based; settings: in vivo, po, 120 h
Serum = assay: Drug accumulation in C57BL/6 mouse serum at 100 mg/kg, ig for 5 days by LC-MS/MS method; format: ADME, organism-based; settings: in vivo, po, 120 h
Ileum = assay: Drug accumulation in C57BL/6 mouse ileum at 100 mg/kg, ig for 5 days by LC-MS/MS method; format: ADME, organism-based; settings: in vivo, po, 120 h
[4] = Efflux ratio in human Caco2 cells at 20 uM by LC-MS/MS method; format: ADME, cell-based; settings: Caco-2
[5] = Drug uptake in human Caco2 cells at 20 and 50 uM by LC-MS/MS method; format: ADME, cell-based; settings: Caco-2
[6] = Apparent permeability from basolateral to apical side in human Caco2 cells at 50 uM by LC-MS/MS method; format: ADME, cell-based; settings: Caco-2
[7] = Efflux ratio in human Caco2 cells at 50 uM by LC-MS/MS method; format: ADME, cell-based; settings: Caco-2
[8] = Drug uptake in human Caco2 cells at 20 and 50 uM by LC-MS/MS method relative to initial level; format: ADME, cell-based; settings: caco-2, TDE = time-dependent effect
Liver = assay: Drug accumulation in C57BL/6 mouse liver at 100 mg/kg, ig for 5 days by LC-MS/MS method; format: ADME, organism-based; settings: in vivo, po, 120 h
[9] = Apparent permeability from apical side to basolateral side in human Caco2 cells at 50 uM by LC-MS/MS method; format: ADME, cell-based; settings: Caco-2
Mus musculus [10] = assay: Induction of FXR activation in C57BL/6 mouse ileum assessed as increase in FXR-mediated Bsep mRNA expression at 100 mg/kg, ig for 5 days by PCR method; format: functional, organism-based
[11] = biological target: T1, Bile acid receptor (Rattus norvegicus) (UniProt Q62735); assay: Agonist activity at FXR in rat primary hepatocytes assessed as increase in SHP mRNA expression at 50 uM; format: cell-based
T1 sequence (whole entry): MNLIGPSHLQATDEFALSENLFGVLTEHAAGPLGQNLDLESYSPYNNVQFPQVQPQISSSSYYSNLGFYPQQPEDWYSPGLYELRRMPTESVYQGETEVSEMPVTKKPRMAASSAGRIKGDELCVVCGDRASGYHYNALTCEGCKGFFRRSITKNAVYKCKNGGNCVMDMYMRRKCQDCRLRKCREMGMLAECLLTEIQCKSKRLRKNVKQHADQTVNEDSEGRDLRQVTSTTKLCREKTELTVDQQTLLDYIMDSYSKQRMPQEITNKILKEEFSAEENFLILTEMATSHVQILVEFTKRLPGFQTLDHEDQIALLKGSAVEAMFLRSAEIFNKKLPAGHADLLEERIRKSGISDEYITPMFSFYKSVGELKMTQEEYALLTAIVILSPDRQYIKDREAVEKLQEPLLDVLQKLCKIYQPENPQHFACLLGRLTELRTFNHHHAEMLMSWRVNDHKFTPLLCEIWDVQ

[12] = biological target: T1, Bile acid receptor (Rattus norvegicus); assay: Agonist activity at FXR in rat primary hepatocytes assessed as increase in BSEP mRNA expression at 50 uM; format: cell-based
[13] = biological target: T2, Bile acid receptor (Homo sapiens) (UniProt Q96RI1); assay: Agonist activity at FXR in human Caco2 cells; format: cell-based
T2 sequence (whole entry): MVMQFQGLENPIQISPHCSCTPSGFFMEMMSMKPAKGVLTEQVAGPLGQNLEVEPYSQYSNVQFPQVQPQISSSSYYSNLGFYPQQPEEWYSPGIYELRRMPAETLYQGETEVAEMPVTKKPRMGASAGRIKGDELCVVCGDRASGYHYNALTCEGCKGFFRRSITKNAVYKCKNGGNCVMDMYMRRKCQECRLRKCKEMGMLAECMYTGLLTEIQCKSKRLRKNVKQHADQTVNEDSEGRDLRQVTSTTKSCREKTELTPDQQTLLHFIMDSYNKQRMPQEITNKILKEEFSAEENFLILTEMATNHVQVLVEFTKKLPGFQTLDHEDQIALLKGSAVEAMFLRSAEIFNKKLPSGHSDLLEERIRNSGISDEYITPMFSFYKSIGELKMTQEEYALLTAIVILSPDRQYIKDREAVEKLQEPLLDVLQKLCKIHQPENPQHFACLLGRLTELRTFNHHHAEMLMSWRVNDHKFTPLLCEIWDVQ

[14] = biological target: T2, Bile acid receptor (Homo sapiens); assay: Agonist activity at FXR in human Hepg2 cells; format: cell-based
[15] = biological target: T1, Bile acid receptor (Rattus norvegicus); assay: Agonist activity at FXR in rat primary hepatocytes assessed as reduction in CYP7A1 mRNA expression at 50 uM; format: cell-based
Mus musculus [16] = assay: Effect on FXR mRNA expression in C57BL/6 mouse kidney at 100 mg/kg, ig for 5 days by PCR method; format: ADME, organism-based; settings: in vivo, po, 120 h
Mus musculus [17] = assay: Effect on FXR activation in C57BL/6 mouse kidney assessed as increase in FXR-mediated Shp mRNA expression at 100 mg/kg, ig for 5 days by PCR method; format: organism-based; settings: in vivo, po, 120 h
Caco-2 = assay: Cytotoxicity against human Caco2 cells at 100 uM incubated for 24 hrs by MTT assay; format: cell-based; settings: caco-2, 24 h
Mus musculus [18] = assay: Increase in FXR mRNA expression in C57BL/6 mouse ileum at 100 mg/kg, ig for 5 days by PCR method; format: functional, organism-based
Mus musculus [19] = assay: Effect on FXR activation in C57BL/6 mouse non ileum part of intestine assessed as increase in FXR-mediated Shp mRNA expression at 100 mg/kg, ig for 5 days by PCR method; format: organism-based; settings: in vivo, po, 120 h
Mus musculus [20] = assay: Effect on FXR activation in C57BL/6 mouse liver assessed as increase in FXR-mediated Shp mRNA expression at 100 mg/kg, ig for 5 days by PCR method; format: organism-based; settings: in vivo, po, 120 h
Mus musculus [21] = assay: Induction of FXR activation in C57BL/6 mouse ileum assessed as increase in FXR-mediated Shp mRNA expression at 100 mg/kg, ig for 5 days by PCR method; format: functional, organism-based
Bile acid receptor = biological target: T3, Bile acid receptor (Homo sapiens, UniProt Q96RI1); assay: Binding affinity to FXR (unknown origin)
T3 sequence (Q96RI1 whole entry): T2 sequence (whole entry)

Intestine = assay: Drug accumulation in C57BL/6 mouse intestine assessed as drug adherence to intestinal wall at 100 mg/kg, ig for 5 days by LC-MS/MS method; format: ADME, organism-based; settings: in vivo, po, 120 h
Mus musculus [22] = assay: Effect on FXR mRNA expression in C57BL/6 mouse jejunum at 100 mg/kg, ig for 5 days by PCR method; format: ADME, organism-based; settings: in vivo, po, 120 h
[23] = biological target: T2, Bile acid receptor (Homo sapiens); assay: Binding affinity to FXR (unknown origin) relative to fexaramine
[24] = Solubility in DMSO/mineral oil medium; format: physicochemical
Mus musculus [25] = assay: Effect on FXR mRNA expression in C57BL/6 mouse duodenum at 100 mg/kg, ig for 5 days by PCR method; format: ADME, organism-based; settings: in vivo, po, 120 h
[26] = Drug uptake in human Caco2 cells at 20 and 50 uM by LC-MS/MS method after 3 hrs; format: ADME, cell-based; settings: caco-2, 3 h
Mus musculus [27] = assay: Effect on FXR mRNA expression in C57BL/6 mouse liver at 100 mg/kg, ig for 5 days by PCR method; format: ADME, organism-based; settings: in vivo, po, 120 h
[28] = biological target: T1, Bile acid receptor (Rattus norvegicus); assay: Agonist activity at FXR in rat primary hepatocytes; format: cell-based

COC(=O)/C=C/c1cccc(N(Cc2ccc(-c3ccc(N(C)C)cc3)cc2)C(=O)C2CCCCC2)c1 [FEXARAMINE]
Activity (Mus musculus [1]): Active | Papp A→B at 20 µM [2]: 27.7 ×10⁻⁶ cm/s | Papp B→A at 20 µM [3]: 24 ×10⁻⁶ cm/s | Drug uptake (Jejunum): Active | Drug uptake (Serum): Active | Drug uptake (Ileum): Active | efflux ratio at 20 µM [4]: 0.87 | Drug uptake [5]: Active | Papp B→A at 50 µM [6]: 873 ×10⁻⁶ cm/s | efflux ratio at 50 µM [7]: 1.14 | Drug uptake [8]: Tde | Drug uptake (Liver): Active | Papp A→B at 50 µM [9]: 762 ×10⁻⁶ cm/s | Activity (Mus musculus [10]): Active

COC(=O)/C=C/c1cccc(N(Cc2ccc(-c3ccc(N(C)C)cc3)cc2)C(=O)c2ccc3cc(N(C)C)ccc3c2)c1
Activity [11]: Active | Activity [12]: Active | Activity [13]: inactive | Activity [14]: inactive | Activity [15]: Active

CNc1ccc2cc(C(=O)N(Cc3ccc(-c4ccc(N(C)C)cc4)cc3)c3cccc(/C=C/C(=O)OC)c3)ccc2c1
Activity [11]: Active | Activity (Mus musculus [1]): Active | Activity [12]: Active | Activity (Mus musculus [16]): Non-Toxic | Papp A→B at 20 µM [2]: 18.7 ×10⁻⁶ cm/s | Activity (Mus musculus [17]): Non-Toxic | Activity (Caco-2): Non-Toxic | Papp B→A at 20 µM [3]: 6.62 ×10⁻⁶ cm/s | Activity (Mus musculus [18]): Active | Activity [13]: inactive | Activity [14]: inactive | Activity (Mus musculus [19]): Non-Toxic | Activity (Mus musculus [20]): Non-Toxic | Activity (Mus musculus [21]): Active | Activity [15]: Active | Kd (Bile acid receptor): 48.7 µM | Drug uptake (Ileum): Active | efflux ratio at 20 µM [4]: 0.35 | Drug uptake [5]: Active | Drug uptake (Intestine): Active | Activity (Mus musculus [22]): Non-Toxic | Papp B→A at 50 µM [6]: 75 ×10⁻⁶ cm/s | Ratio [23]: 2000 | efflux ratio at 50 µM [7]: 0.77 | solubility [24]: Insoluble | Papp A→B at 50 µM [9]: 97.6 ×10⁻⁶ cm/s | Activity (Mus musculus [25]): Non-Toxic | Drug uptake [26]: Active | Activity (Mus musculus [10]): Active | Activity (Mus musculus [27]): Non-Toxic

COC(=O)/C=C/c1cccc(N(CC2CCCCC2)C(=O)c2ccc3cc(N(C)C)ccc3c2)c1
Activity [13]: inactive | Activity [14]: inactive | Activity [28]: inactive

CNc1ccc2cc(C(=O)N(CC3CCCCC3)c3cccc(/C=C/C(=O)OC)c3)ccc2c1
Activity [13]: inactive | Activity [14]: inactive | Activity [28]: inactive
